Tests used:
Type in all cases: in vivo
Myzus persicae [1] = experiment: Activity against Myzus persicae (green peach aphid), roots of pea seedlings in test solution; conditions: 144 h, test rate of 24 ppm, roots of infested pea seedlings in test solution, 6 days
Protocol: Roots of pea seedlings infested with an aphid population of mixed ages were placed directly in the aqueous test solutions prepared from 10′000 DMSO stock solutions. The samples were assessed for mortality 6 days after placing seedlings in test solutions.

Euschistus heros = experiment: Activity against Euschistus heros (neotropical brown stink bug); conditions: 120 h, application rate of 200 ppm, sprayed soybean leaf, N-2 nymphs, 5 days after infestation, read-out: effect in at least one of the two categories (mortality or growth inhibition)
Protocol: Soybean leaf on agar in 24-well microtiter plates were sprayed with aqueous test solutions prepared from 10′000 ppm DMSO stock solutions. After drying the leaf were infested with N-2 nymphs. The samples were assessed for mortality and growth inhibition in comparison to untreated samples 5 days after infestation.

Myzus persicae [2] = experiment: Activity against Myzus persicae (green peach aphid), sprayed sunflower leaf discs; conditions: foliar, 144 h, application rate of 200 ppm, aphid population of mixed ages, 6 days after infestation
Protocol: (§1) Sunflower leaf discs were placed on agar in a 24-well microtiter plate and sprayed with aqueous test solutions prepared from 10′000 ppm DMSO stock solutions. After drying, the leaf discs were infested with an aphid population of mixed ages. The samples were assessed for mortality 6 days after infestation.

Plutella xylostella = experiment: Activity against Plutella xylostella (diamond back moth), artificial diet; conditions: 120 h, application rate of 200 ppm, L2 larvae on artificial diet, 5 days after infestation, read-out: effect in at least one of the two categories (mortality or growth inhibition)
Protocol: (§2) 24-well microtiter plates with artificial diet were treated with aqueous test solutions prepared from 10′000 ppm DMSO stock solutions by pipetting. After drying, the plates were infested with L2 larvae (10 to 15 per well). The samples were assessed for mortality and growth inhibition in comparison to untreated samples 5 days after infestation.

Bemisia tabaci = experiment: Activity against Bemisia tabaci (cotton white fly); conditions: foliar, 144 h, application rate of 200 ppm, sprayed cotton leaf discs, adult white flies, 6 days after incubation
Protocol: Cotton leaf discs were placed on agar in 24-well microtiter plates and sprayed with aqueous test solutions prepared from 10′000 ppm DMSO stock solutions. After drying the leaf discs were infested with adult white flies. The samples were checked for mortality 6 days after incubation.

Diabrotica Balteata = experiment: Activity against Diabrotica balteata (corn root worm); conditions: 96 h, application rate of 200 ppm, sprayed maize sprouts, L2 larvae, 4 days after infestation, read-out: effect in at least one of the two categories (mortality or growth inhibition)
Protocol: as §2, with “Maize sprouts placed onto an agar layer in 24-well” for “24-well”, “plates” for “plates with artificial diet”, “spraying.” for “pipetting.”, “(6” for “(10”, “10” for “15”, “4” for “5”

[3] = tested on: Frankliniella occidentalis; experiment: Activity against Frankliniella occidentalis (western flower thrips); conditions: foliar, 168 h, application rate of 200 ppm, sprayed sunflower leaf discs, population of mixed ages, 7 days after infestation
Protocol: as §1, with “in” for “in a”, “plates” for “plate”, “[…]” for “10′000 ppm”, “drying” for “drying,”, “a Frankliniella” for “an aphid”, “7” for “6”

Spodoptera littoralis = experiment: Activity against Spodoptera littoralis (Egyptian cotton leaf worm); conditions: foliar, 72 h, application rate of 200 ppm, sprayed cotton leaf discs, L1 larvae, 3 days after infestation, read-out: control (mortality, anti-feeding effect, or growth inhibition)
Protocol: Cotton leaf discs were placed onto agar in 24-well microtiter plates and sprayed with aqueous test solutions prepared from 10′000 ppm DMSO stock solutions. After drying the leaf discs were infested with five L1 larvae. The samples were assessed for mortality, anti-feeding effect, and growth inhibition in comparison to untreated samples 3 days after infestation. Control of Spodoptera littoralis by a test sample is given when at least one of the categories mortality, anti-feedant effect, and growth inhibition is higher than the untreated sample.

CCS(=O)(=O)c1cc(C(=O)N=S2(=O)CCOCC2)cnc1-c1nc2cc(C(F)(F)F)ncc2n1C [Compound P2, 5-ethylsulfonyl-6-[3-methyl-6-(trifluoromethyl)imidazo[4,5-c]pyridin-2-yl]-N-(4-oxo-1,4-oxathian-4-ylidene)pyridine-3-carboxamide]
≥ 80%: mortality at 24 ppm (Myzus persicae [1]) | percent effect (mortality or growth inhibition) at 200 ppm (Euschistus heros) | mortality at 200 ppm (Myzus persicae [2])

CCS(=O)(=O)c1cc(C(=O)N=S(=O)(CC)CC)cnc1-c1nc2cc(C(F)(F)F)ncc2n1C [Compound P3]
≥ 80%: percent effect (mortality or growth inhibition) at 200 ppm (Plutella xylostella) | mortality at 24 ppm (Myzus persicae [1]) | percent effect (mortality or growth inhibition) at 200 ppm (Euschistus heros) | mortality at 200 ppm (Bemisia tabaci) | mortality at 200 ppm (Myzus persicae [2])

CCS(=O)(=O)c1cc(C(=O)N=S(C)C)cnc1-c1nc2cc(C(F)(F)F)ncc2n1C [Compound P5, N-(dimethyl-λ^4-sulfanylidene)-5-ethylsulfonyl-6-[3-methyl-6-(trifluoromethyl)imidazo[4,5-c]pyridin-2-yl]pyridine-3-carboxamide]
≥ 80%: mortality at 24 ppm (Myzus persicae [1]) | percent effect (mortality or growth inhibition) at 200 ppm (Euschistus heros) | mortality at 200 ppm (Bemisia tabaci) | mortality at 200 ppm (Myzus persicae [2]) | percent effect (mortality or growth inhibition) at 200 ppm (Diabrotica Balteata)

CCS(=O)(=O)c1cc(C(=O)N=S(C)(C)=O)cnc1-c1nc2cc(C(F)(F)F)nnc2n1C [Compound P6, N-[dimethyl(oxo)-λ^6-sulfanylidene]-5-ethylsulfonyl-6-[7-methyl-3-(trifluoromethyl)imidazo[4,5-c]pyridazin-6-yl]pyridine-3-carboxamide]
≥ 80%: percent effect (mortality or growth inhibition) at 200 ppm (Plutella xylostella) | mortality at 24 ppm (Myzus persicae [1]) | percent effect (mortality or growth inhibition) at 200 ppm (Euschistus heros) | mortality at 200 ppm (Bemisia tabaci) | mortality at 200 ppm (Myzus persicae [2]) | percent effect (mortality or growth inhibition) at 200 ppm (Diabrotica Balteata)

CCS(=O)(=O)c1cc(C(=O)N=S(C)(C)=O)ccc1-c1cn2cnc(C(F)(F)F)cc2n1 [Compound P7, N-[dimethyl(oxo)-λ^6-sulfanylidene]-3-ethylsulfonyl-4-[7-(trifluoromethyl)imidazo[1,2-c]pyrimidin-2-yl]benzamide]
≥ 80%: percent effect (mortality or growth inhibition) at 200 ppm (Plutella xylostella) | mortality at 24 ppm (Myzus persicae [1]) | mortality at 200 ppm (Myzus persicae [2]) | percent effect (mortality or growth inhibition) at 200 ppm (Diabrotica Balteata) | mortality at 200 ppm [3]

CCS(=O)(=O)c1cc(C(=O)N=S(C)(=O)CC)cnc1-c1nc2cc(C(F)(F)F)nnc2n1C (stereo not shown) [Compound P9, N-(ethyl-methyl-oxo-λ^6-sulfanylidene)-5-ethylsulfonyl-6-[7-methyl-3-(trifluoromethyl)imidazo[4,5-c]pyridazin-6-yl]pyridine-3-carboxamide]
≥ 80%: percent effect (mortality or growth inhibition) at 200 ppm (Plutella xylostella) | mortality at 24 ppm (Myzus persicae [1]) | percent effect (mortality or growth inhibition) at 200 ppm (Euschistus heros) | mortality at 200 ppm (Bemisia tabaci) | mortality at 200 ppm (Myzus persicae [2]) | percent effect (mortality or growth inhibition) at 200 ppm (Diabrotica Balteata) | mortality at 200 ppm [3]

CCS(CC)=NC(=O)c1cnc(-c2nc3cc(C(F)(F)F)ncc3n2C)c(S(=O)(=O)CC)c1 [Compound P10, N-(diethyl-λ^4-sulfanylidene)-5-ethylsulfonyl-6-[3-methyl-6-(trifluoromethyl)imidazo[4,5-c]pyridin-2-yl]pyridine-3-carboxamide]
≥ 80%: percent effect (mortality or growth inhibition) at 200 ppm (Plutella xylostella) | mortality at 24 ppm (Myzus persicae [1]) | percent effect (mortality or growth inhibition) at 200 ppm (Euschistus heros) | mortality at 200 ppm (Bemisia tabaci) | mortality at 200 ppm (Myzus persicae [2]) | mortality at 200 ppm [3]

CCS(=O)(=O)c1cc(C(=O)N=S2(=O)CCC2)cnc1-c1nc2cc(C(F)(F)F)ncc2n1C [Compound P12, 5-ethylsulfonyl-6-[3-methyl-6-(trifluoromethyl)imidazo[4,5-c]pyridin-2-yl]-N-(1-oxothietan-1-ylidene)pyridine-3-carboxamide]
≥ 80%: percent effect (mortality or growth inhibition) at 200 ppm (Plutella xylostella) | mortality at 24 ppm (Myzus persicae [1]) | mortality at 200 ppm (Bemisia tabaci) | mortality at 200 ppm (Myzus persicae [2])

CCS(=O)(=O)c1cc(C(=O)N=S2(=O)CCOCC2)cnc1-c1nc2cc(C(F)(F)F)cnc2n1C [Compound P17, 5-ethylsulfonyl-6-[3-methyl-6-(trifluoromethyl)imidazo[4,5-b]pyridin-2-yl]-N-(4-oxo-1,4-oxathian-4-ylidene)pyridine-3-carboxamide]
≥ 80%: percent effect (mortality or growth inhibition) at 200 ppm (Plutella xylostella) | mortality at 24 ppm (Myzus persicae [1]) | percent effect (mortality or growth inhibition) at 200 ppm (Euschistus heros) | mortality at 200 ppm (Myzus persicae [2])

CCS(=O)(=O)c1cc(C(=O)N=S(=O)(CC)CC)cnc1-c1nc2cc(C(F)(F)F)nnc2n1C [Compound P18, N-[diethyl(oxo)-λ^6-sulfanylidene]-5-ethylsulfonyl-6-[7-methyl-3-(trifluoromethyl)imidazo[4,5-c]pyridazin-6-yl]pyridine-3-carboxamide]
≥ 80%: percent effect (mortality or growth inhibition) at 200 ppm (Plutella xylostella) | mortality at 24 ppm (Myzus persicae [1]) | percent effect (mortality or growth inhibition) at 200 ppm (Euschistus heros) | mortality at 200 ppm (Bemisia tabaci) | mortality at 200 ppm (Myzus persicae [2]) | percent effect (mortality or growth inhibition) at 200 ppm (Diabrotica Balteata)

CCS(=O)(=O)c1cc(C(=O)N=S(=O)(CC)CC)cnc1-c1nc2cc(C(F)(F)F)cnc2n1C [Compound P19, N-[diethyl(oxo)-λ^6-sulfanylidene]-5-ethylsulfonyl-6-[3-methyl-6-(trifluoromethyl)imidazo[4,5-b]pyridin-2-yl]pyridine-3-carboxamide]
≥ 80%: percent effect (mortality or growth inhibition) at 200 ppm (Plutella xylostella) | mortality at 24 ppm (Myzus persicae [1]) | percent effect (mortality or growth inhibition) at 200 ppm (Euschistus heros) | mortality at 200 ppm (Bemisia tabaci) | mortality at 200 ppm (Myzus persicae [2]) | mortality at 200 ppm [3]

CCS(=O)(=O)c1cc(C(=O)N=S(=O)(CC)CC)cnc1-c1cn2cnc(C(F)(F)F)cc2n1 [Compound P21, N-[diethyl(oxo)-λ^6-sulfanylidene]-5-ethylsulfonyl-6-[7-(trifluoromethyl)imidazo[1,2-c]pyrimidin-2-yl]pyridine-3-carboxamide]
≥ 80%: percent effect (mortality or growth inhibition) at 200 ppm (Plutella xylostella) | percent effect (mortality or growth inhibition) at 200 ppm (Euschistus heros) | percent control (mortality, anti-feedant effect or growth inhibition) at 200 ppm (Spodoptera littoralis)

CCS(=O)(=O)c1cc(C(=O)N=S(C)(C)=O)ccc1-c1nc2cc(C(F)(F)F)cnc2n1C [Compound P22, N-[dimethyl(oxo)-λ^6-sulfanylidene]-3-ethylsulfonyl-4-[3-methyl-6-(trifluoromethyl)imidazo[4,5-b]pyridin-2-yl]benzamide]
≥ 80%: percent effect (mortality or growth inhibition) at 200 ppm (Plutella xylostella) | mortality at 24 ppm (Myzus persicae [1]) | percent effect (mortality or growth inhibition) at 200 ppm (Euschistus heros) | mortality at 200 ppm (Bemisia tabaci) | mortality at 200 ppm (Myzus persicae [2]) | percent effect (mortality or growth inhibition) at 200 ppm (Diabrotica Balteata) | mortality at 200 ppm [3]

CCS(=O)(=O)c1cc(C(=O)N=S(=O)(CC)CC)ccc1-c1nc2cc(C(F)(F)F)cnc2n1C [Compound P23, N-[diethyl(oxo)-λ^6-sulfanylidene]-3-ethylsulfonyl-4-[3-methyl-6-(trifluoromethyl)imidazo[4,5-b]pyridin-2-yl]benzamide]
≥ 80%: percent effect (mortality or growth inhibition) at 200 ppm (Plutella xylostella) | mortality at 24 ppm (Myzus persicae [1]) | percent effect (mortality or growth inhibition) at 200 ppm (Euschistus heros) | mortality at 200 ppm (Bemisia tabaci) | mortality at 200 ppm (Myzus persicae [2]) | percent effect (mortality or growth inhibition) at 200 ppm (Diabrotica Balteata)

CCS(=O)(=O)c1cc(C(=O)N=S(C)(C)=O)cnc1-n1cc2cnc(C(F)(F)F)cc2n1 [Compound P24, N-[dimethyl(oxo)-λ^6-sulfanylidene]-5-ethylsulfonyl-6-[6-(trifluoromethyl)pyrazolo[4,3-c]pyridin-2-yl]pyridine-3-carboxamide]
≥ 80%: percent effect (mortality or growth inhibition) at 200 ppm (Plutella xylostella) | percent control (mortality, anti-feedant effect or growth inhibition) at 200 ppm (Spodoptera littoralis) | percent effect (mortality or growth inhibition) at 200 ppm (Diabrotica Balteata)

Reference: patent US10894792B2, “Pesticidally active heterocyclic derivatives with sulfur containing substituents” (SYNGENTA PARTICIPATIONS AG, priority 2017, dated 2021)
